Measurements reported in patent US10105357B2, “Indication of antibiotic drugs for preparation of cancer inhibition pharmaceutical composition” (LAUNX BIOMEDICAL CO., LTD., priority 2014, dated 2018).
Where a name gives a salt, the structure may show the parent alone. Read-outs that look alike come from different tables or passages of the source.

Legend:
[1] = test system: HI650 (Lung Adenocarcinoma); experiment: Cell viability analysis, lung cancer HI650; assay type: cell-based, human; details: Homo sapiens, NCI-H1650, 72 h
[2] = test system: HCT116 (p53+) (Colorectal Carcinoma); experiment: cells; details: Homo sapiens, HCT-116, 72 h, read-out: cell viability (survival rate), HCT116
[3] = test system: HL-60 (Acute Promyelocytic Leukemia); experiment: Cell viability analysis, leukemia HL-60; assay type: cell-based, human; details: Homo sapiens, HL-60, 72 h
[4] = test system: PC3 (p53−) (Prostate Adenocarcinoma); experiment: Cell viability analysis, prostate cancer PC3; assay type: cell-based, human; details: Homo sapiens, 72 h
[5] = test system: TSGH-8301 (Urinary Bladder Carcinoma); experiment: Cell viability analysis, bladder cancer TSGH-8301; assay type: cell-based, human; details: Homo sapiens, 72 h
[6] = test system: MCF7 (Mammary Gland, Adenocarcinoma); experiment: Cell viability analysis, breast cancer MCF7; assay type: cell-based, human; details: Homo sapiens, MCF7, 72 h
[7] = test system: MKN-45 (Gastric Adenocarcinoma); experiment: Cell viability analysis, gastric cancer MKN-45; assay type: cell-based, human; details: Homo sapiens, MKN-45, 72 h
[8] = test system: AGS (Gastric Adenocarcinoma); experiment: Cell viability analysis, gastric cancer AGS; assay type: cell-based, human; details: Homo sapiens, 72 h
[9] = test system: A375 (Amelanotic Melanoma); experiment: Cell viability analysis, skin cancer A375; assay type: cell-based, human; details: Homo sapiens, A-375, 72 h
[10] = test system: HeLa (Cervix Adenocarcinoma); experiment: Cell viability analysis, cervical cancer HeLa; assay type: cell-based, human; details: Homo sapiens, HeLa, 72 h
[11] = test system: A549 (Lung Adenocarcinoma); experiment: Cell viability analysis, lung cancer A549; assay type: cell-based, human; details: Homo sapiens, A549, 72 h
[12] = test system: HepG2 (Hepatocellular Carcinoma); experiment: Cell viability analysis, hepatic cancer HepG2; assay type: cell-based, human; details: Homo sapiens, HepG2, 72 h
[13] = test system: LoVo (Colorectal Adenocarcinoma); experiment: Cell viability analysis, colon cancer LoVo; assay type: cell-based, human; details: Homo sapiens, LoVo, 72 h
[14] = read-out: cell viability (survival rate), LoVo, drug 10 μM, 72 hours, WST-1, OD450 nm
[15] = read-out: cell viability (survival rate), H1650, drug 10 μM, 72 hours, WST-1, OD450 nm
[16] = read-out: cell viability (survival rate), HL-60, drug 10 μM, 72 hours, WST-1, OD450 nm
[17] = read-out: cell viability (survival rate), PC3, drug 10 μM, 72 hours, WST-1, OD450 nm
[18] = read-out: cell viability (survival rate), TSGH, drug 10 μM, 72 hours, WST-1, OD450 nm
[19] = read-out: cell viability (survival rate), MCF7, drug 10 μM, 72 hours, WST-1, OD450 nm
[20] = read-out: cell viability (survival rate), MKN-45, drug 10 μM, 72 hours, WST-1, OD450 nm
[21] = read-out: cell viability (survival rate), AGS, drug 10 μM, 72 hours, WST-1, OD450 nm
[22] = read-out: cell viability (survival rate), A375, drug 10 μM, 72 hours, WST-1, OD450 nm
[23] = read-out: cell viability (survival rate), HeLa, drug 10 μM, 72 hours, WST-1, OD450 nm
[24] = read-out: cell viability (survival rate), A549, drug 10 μM, 72 hours, WST-1, OD450 nm
[25] = read-out: cell viability (survival rate), HepG2, drug 10 μM, 72 hours, WST-1, OD450 nm

SMILES	viability at 10 µM [2] [%]	viability at 10 µM [13, 14] [%]	viability at 10 µM [1, 15] [%]	viability at 10 µM [3, 16] [%]	viability at 10 µM [4, 17] [%]	viability at 10 µM [5, 18] [%]	viability at 10 µM [6, 19] [%]	viability at 10 µM [7, 20] [%]	viability at 10 µM [8, 21] [%]	viability at 10 µM [9, 22] [%]	viability at 10 µM [10, 23] [%]	viability at 10 µM [11, 24] [%]	viability at 10 µM [12, 25] [%]	further results
CCCCC(CC)CNC(=N)NC(=N)NCCCCCCNC(=N)NC(=N)NCC(CC)CCCC (stereo not drawn) [Alexidine HCl]	65.8	54.6	–	–	–	–	–	–	–	–	–	–	–	viability at 10 µM ([1]; drug 10 μM, 72 hours, WST-1, OD450 nm, read-out: cell viability (survival rate), H1650): 57.5%; viability at 10 µM ([3]; drug 10 μM, 72 hours, WST-1, OD450 nm, read-out: cell viability (survival rate), HL-60): 29.4%; viability at 10 µM ([4]; drug 10 μM, 72 hours, WST-1, OD450 nm, read-out: cell viability (survival rate), PC3): 38%; viability at 10 µM ([5]; drug 10 μM, 72 hours, WST-1, OD450 nm, read-out: cell viability (survival rate), TSGH): 36.6%; viability at 10 µM ([6]; drug 10 μM, 72 hours, WST-1, OD450 nm, read-out: cell viability (survival rate), MCF7): 34.8%; viability at 10 µM ([7]; drug 10 μM, 72 hours, WST-1, OD450 nm, read-out: cell viability (survival rate), MKN-45): 64.4%; viability at 10 µM ([8]; drug 10 μM, 72 hours, WST-1, OD450 nm, read-out: cell viability (survival rate), AGS): 45.1%; viability at 10 µM ([9]; drug 10 μM, 72 hours, WST-1, OD450 nm, read-out: cell viability (survival rate), A375): 38.1%; viability at 10 µM ([10]; drug 10 μM, 72 hours, WST-1, OD450 nm, read-out: cell viability (survival rate), HeLa): 44.9%; viability at 10 µM ([11]; drug 10 μM, 72 hours, WST-1, OD450 nm, read-out: cell viability (survival rate), A549): 25.3%; viability at 10 µM ([12]; drug 10 μM, 72 hours, WST-1, OD450 nm, read-out: cell viability (survival rate), HepG2): 65.9%
CCCCCCCCCCCCCCCC[n+]1ccccc1 [Cetylpyridinium Chloride]	33.6	–	–	–	–	–	–	–	–	–	–	–	–	viability at 10 µM ([1]; read-out: cell viability (survival rate), H1650): 48.7%; viability at 10 µM ([3]; read-out: cell viability (survival rate), HL-60): 30.8%; viability at 10 µM ([4]; read-out: cell viability (survival rate), PC3): 37.1%; viability at 10 µM ([5]; read-out: cell viability (survival rate), TSGH): 37.2%; viability at 10 µM ([6]; read-out: cell viability (survival rate), MCF7): 40.9%; viability at 10 µM ([7]; read-out: cell viability (survival rate), MKN-45): 47.4%; viability at 10 µM ([8]; read-out: cell viability (survival rate), AGS): 33.4%; viability at 10 µM ([9]; read-out: cell viability (survival rate), A375): 35.6%; viability at 10 µM ([10]; read-out: cell viability (survival rate), HeLa): 37.1%; viability at 10 µM ([11]; read-out: cell viability (survival rate), A549): 29.2%; viability at 10 µM ([12]; read-out: cell viability (survival rate), HepG2): 60.9%; viability at 10 µM ([13]; read-out: cell viability (survival rate), LoVo): 50.7%
COc1cc(/C=C/C(=O)CC(=O)/C=C/c2ccc(O)c(OC)c2)ccc1O [Curcumin]	93.6	80	74.7	111	77.9	95.4	61.8	46.4	72.2	104	66.2	105	98.3	–
COC(=O)C1=CO[C@@H](O)[C@@H]2C(CO)=CC[C@H]12 [Genipin]	82.7	–	69.5	117	71.6	67.7	71.7	54.1	49.6	78	74.5	61.8	87.1	–
